In ChEMBL document CHEMBL4616599, “Molecular mechanism of C-phycocyanin induced apoptosis in LNCaP cells” (Bioorg Med Chem, 2020):
Calls of active or inactive are those of the source. No cut-off for these calls is given here.

Experiments:
[1] = tested on: LNCaP; assay: Induction of DNA fragmentation in human LNCAP cells at 500 ug/ml measured after 24 hrs in presence of topotecan by agarose gel electrophoresis; type: functional, cell-based
[2] = tested on: LNCaP; assay: Up regulation of CASP8 gene expression in human LNCAP cells at 500 ug/ml measured after 24 hrs by RT profile PCR analysis relative to control; type: functional
[3] = tested on: LNCaP; assay: Down regulation of BCL2 gene expression in human LNCAP cells at 500 ug/ml measured after 24 hrs by RT profile PCR analysis relative to control; type: functional
[4] = tested on: LNCaP; assay: Down regulation of BIRC5 gene expression in human LNCAP cells at 500 ug/ml measured after 24 hrs by RT profile PCR analysis relative to control; type: functional
[5] = tested on: LNCaP; assay: Down regulation of IGF1R gene expression in human LNCAP cells at 500 ug/ml measured after 24 hrs by RT profile PCR analysis relative to control; type: functional
[6] = tested on: LNCaP; assay: Induction of apoptosis in human LNCAP cells assessed as down regulation of survivin expression at 500 ug/ml measured after 24 hrs in presence of topotecan by Western blot analysis; type: functional, cell-based
[7] = tested on: LNCaP; assay: Induction of apoptosis in human LNCAP cells assessed as up regulation of pro-apoptotic protein Apaf-1 expression at 500 ug/ml measured after 24 hrs by Western blot analysis; type: functional, cell-based
[8] = Drug uptake in plasma membrane of human LNCAP cells at 250 to 500 ug/ml incubated for 12 hrs followed by 3 times washout by fluorescence microscopic analysis; type: ADME, cell membranes
[9] = tested on: LNCaP; assay: Induction of apoptosis in human LNCAP cells assessed as up regulation of pro-apoptotic protein Apaf-1 expression at 500 ug/ml measured after 24 hrs in presence of topotecan by Western blot analysis; type: functional, cell-based
[10] = tested on: LNCaP; assay: Induction of apoptosis in human LNCAP cells assessed as up regulation of pro-apoptotic protein Bax expression at 500 ug/ml measured after 24 hrs in presence of topotecan by Western blot analysis; type: functional, cell-based
[11] = tested on: LNCaP; assay: Induction of apoptosis in human LNCAP cells assessed as decrease in uncleaved PARP expression at 500 ug/ml measured after 24 hrs by Western blot analysis; type: functional, cell-based
[12] = tested on: LNCaP; assay: Down regulation of AKT1 gene expression in human LNCAP cells at 500 ug/ml measured after 24 hrs by RT profile PCR analysis relative to control; type: functional
[13] = tested on: LNCaP; assay: Cytotoxicity against human LNCAP cells assessed as reduction in cell viability at 500 ug/mL after 24 hrs by trypan blue dye exclusion assay; type: functional, cell-based
[14] = tested on: LNCaP; assay: Induction of apoptosis in human LNCAP cells assessed as increase in caspase 3 activity at 500 ug/ml measured after 24 hrs in presence of topotecan by Ac-DEVD-pNA substrate based colorimetric assay; type: functional, cell-based
[15] = tested on: LNCaP; assay: Induction of apoptosis in human LNCAP cells assessed as up regulation of p53 expression at 500 ug/ml measured after 24 hrs by immunoblot analysis; type: functional, cell-based
[16] = tested on: LNCaP; assay: Induction of apoptosis in human LNCAP cells assessed as increase in cleaved PARP expression at 500 ug/ml measured after 24 hrs in presence of topotecan by Western blot analysis; type: functional, cell-based
[17] = tested on: LNCaP; assay: Induction of apoptosis in human LNCAP cells assessed as up regulation of cleaved caspase 3 expression at 500 ug/ml measured after 24 hrs in presence of topotecan by Western blot analysis; type: functional, cell-based
[18] = tested on: LNCaP; assay: Induction of DNA fragmentation in human LNCAP cells at 500 ug/ml measured after 24 hrs by agarose gel electrophoresis; type: functional, cell-based
[19] = tested on: LNCaP; assay: Up regulation of GADD45A gene expression in human LNCAP cells at 500 ug/ml measured after 24 hrs by RT profile PCR analysis relative to control; type: functional
[20] = tested on: LNCaP; assay: Up regulation of BAG1 gene expression in human LNCAP cells at 500 ug/ml measured after 24 hrs by RT profile PCR analysis relative to control; type: functional
[21] = tested on: LNCaP; assay: Induction of apoptosis in human LNCAP cells assessed as increase in cleaved PARP expression at 500 ug/ml measured after 24 hrs by western blot analysis; type: functional, cell-based
[22] = biological target: T1, Tumor necrosis factor receptor superfamily member 6 (Homo sapiens) (UniProt P25445); assay: Activation of FAS receptor in human LNCAP cells assessed as increase in caspase 8 activity at 500 ug/ml measured after 24 hrs in presence of topotecan by Ac-IETD-pNA substrate based colorimetric assay; type: cell-based
T1 sequence (whole entry): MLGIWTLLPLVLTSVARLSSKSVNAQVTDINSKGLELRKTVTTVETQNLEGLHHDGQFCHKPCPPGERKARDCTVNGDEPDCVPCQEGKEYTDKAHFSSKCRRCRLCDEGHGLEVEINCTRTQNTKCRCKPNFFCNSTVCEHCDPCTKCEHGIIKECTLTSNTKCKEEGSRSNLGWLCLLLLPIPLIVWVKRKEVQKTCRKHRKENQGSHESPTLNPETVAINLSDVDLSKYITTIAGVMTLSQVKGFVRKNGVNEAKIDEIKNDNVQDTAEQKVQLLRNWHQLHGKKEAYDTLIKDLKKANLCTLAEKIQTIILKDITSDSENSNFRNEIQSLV

[23] = tested on: LNCaP; assay: Induction of apoptosis in human LNCAP cells assessed as down regulation of Mcl-1 expression at 500 ug/ml measured after 24 hrs in presence of topotecan by Western blot analysis; type: functional, cell-based
[24] = tested on: LNCaP; assay: Induction of apoptosis against human LNCAP cells assessed as down regulation of survivin expression at 500 ug/ml measured after 24 hrs by Western blot analysis; type: functional, cell-based
[25] = tested on: LNCaP; assay: Induction of apoptosis in human LNCAP cells assessed as increase in FAS expression at 500 ug/ml measured after 24 hrs in presence of topotecan by Western blot analysis; type: functional, cell-based
[26] = tested on: LNCaP; assay: Up regulation of TP73 gene expression in human LNCAP cells at 500 ug/ml measured after 24 hrs by RT profile PCR analysis relative to control; type: functional
[27] = tested on: LNCaP; assay: Up regulation of TNFRSF1B gene expression in human LNCAP cells at 500 ug/ml measured after 24 hrs by RT profile PCR analysis relative to control; type: functional
[28] = tested on: LNCaP; assay: Induction of apoptosis in human LNCAP cells assessed as increase in caspase 3 activity at 500 ug/ml measured after 24 hrs by Ac-DEVD-pNA substrate based colorimetric assay; type: functional, cell-based
[29] = tested on: LNCaP; assay: Up regulation of FAS gene expression in human LNCAP cells at 500 ug/ml measured after 24 hrs by RT profile PCR analysis relative to control; type: functional
[30] = tested on: LNCaP; assay: Up regulation of TNFRSF10A gene expression in human LNCAP cells at 500 ug/ml measured after 24 hrs by RT profile PCR analysis relative to control; type: functional
[31] = tested on: LNCaP; assay: Cytotoxicity against human LNCAP cells assessed as reduction in cell viability at 500 ug/ml measured after 24 hrs in presence of topotecan by trypan blue dye exclusion test relative to control; type: functional
[32] = tested on: LNCaP; assay: Induction of apoptosis in human LNCAP cells assessed as up regulation of cleaved caspase 3 expression at 500 ug/ml measured after 24 hrs by Western blot analysis; type: functional, cell-based
[33] = tested on: LNCaP; assay: Induction of apoptosis in human LNCAP cells assessed as up regulation of p21 expression at 500 ug/ml measured after 24 hrs by immunoblot analysis; type: functional, cell-based
[34] = tested on: LNCaP; assay: Induction of apoptosis in human LNCAP cells assessed as increase in caspase 9 activity at 500 ug/ml measured after 24 hrs in presence of topotecan by Ac-LEHD-pNA substrate based colorimetric assay; type: functional, cell-based
[35] = biological target: T1, Tumor necrosis factor receptor superfamily member 6 (Homo sapiens); assay: Activation of FAS receptor in human LNCAP cells assessed as increase in caspase 8 activity at 500 ug/ml measured after 24 hrs by Ac-IETD-pNA substrate based colorimetric assay; type: cell-based
[36] = tested on: LNCaP; assay: Induction of apoptosis in human LNCAP cells assessed as increase in FAS expression at 500 ug/ml measured after 24 hrs by Western blot analysis; type: functional, cell-based
[37] = Drug uptake in cytoplasm of human LNCAP cells at 250 to 500 ug/mL incubated for 12 hrs followed by single compound washout by fluorescence microscopic analysis; type: ADME, subcellular
[38] = tested on: LNCaP; assay: Up regulation of BAX gene expression in human LNCAP cells at 500 ug/ml measured after 24 hrs by RT profile PCR analysis relative to control; type: functional
[39] = Drug uptake in cytoplasm of human LNCAP cells at 250 to 500 ug/ml incubated for 12 hrs followed by 3 times washout by fluorescence microscopic analysis; type: ADME, subcellular
[40] = tested on: LNCaP; assay: Induction of apoptosis in human LNCAP cells assessed as Bax/Bcl2 ratio at 500 ug/ml measured after 24 hrs in presence of topotecan by Western blot analysis; type: functional
[41] = tested on: LNCaP; assay: Induction of apoptosis in 3 hrs FAS inhibitor KP7-6 treated human LNCAP cells assessed as increase in caspase 8 activity at 500 ug/ml measured after 24 hrs by Ac-IETD-pNA substrate based colorimetric assay; type: functional, cell-based
[42] = tested on: LNCaP; assay: Induction of apoptosis in human LNCAP cells assessed as increase in caspase 9 activity at 500 ug/ml measured after 24 hrs by Ac-LEHD-pNA substrate based colorimetric assay; type: functional, cell-based
[43] = tested on: LNCaP; assay: Induction of apoptosis in human LNCAP cells assessed as down regulation of Bcl2 expression at 500 ug/ml measured after 24 hrs in presence of topotecan by Western blot analysis; type: functional, cell-based
[44] = tested on: LNCaP; assay: Induction of apoptosis in human LNCAP cells assessed as down regulation of Mcl-1 expression at 500 ug/ml measured after 24 hrs by Western blot analysis; type: functional, cell-based
[45] = tested on: LNCaP; assay: Induction of apoptosis in human LNCAP cells assessed as up regulation of p53 expression at 500 ug/ml measured after 24 hrs in presence of topotecan by immunoblot analysis; type: functional, cell-based
[46] = tested on: LNCaP; assay: Induction of apoptosis in human LNCAP cells assessed as up regulation of p21 expression at 500 ug/ml measured after 24 hrs in presence of topotecan by immunoblot analysis; type: functional, cell-based
[47] = Drug uptake in plasma membrane of human LNCAP cells at 250 to 500 ug/mL incubated for 12 hrs followed by single washout by fluorescence microscopic analysis; type: ADME, cell membranes
[48] = tested on: LNCaP; assay: Induction of apoptosis in human LNCAP cells assessed as Bax/Bcl2 ratio at 500 ug/ml measured after 24 hrs by Western blot analysis; type: functional
[49] = tested on: LNCaP; assay: Up regulation of TNFRSF1OB gene expression in human LNCAP cells at 500 ug/ml measured after 24 hrs by RT profile PCR analysis relative to control; type: functional
[50] = tested on: LNCaP; assay: Induction of apoptosis in human LNCAP cells assessed as down regulation of Bcl2 expression at 500 ug/ml measured after 24 hrs by Western blot analysis; type: functional, cell-based
[51] = tested on: LNCaP; assay: Induction of apoptosis in human LNCAP cells assessed as decrease in uncleaved PARP expression at 500 ug/ml measured after 24 hrs in presence of topotecan by Western blot analysis; type: functional, cell-based

## C/C=C1/C(=C\c2[nH]c(/C=C3N=C(/C=C4/NC(=O)C(CC)=C4C)C(C)=C/3CCC(=O)O)c(CCC(=O)O)c2C)NC(=O)C1C (stereo unspecified)
[1]
  Activity: Active
[2]
  fold change (FC): 1.2
[3]
  fold change (FC): 0.45
[4]
  fold change (FC): 0.009
[5]
  fold change (FC): 0.47
[6]
  Activity: Active
[7]
  Activity: Active
[8]
  Drug uptake: Active
[9]
  Activity: Active
[10]
  Activity: Active
[11]
  Activity: Active
[12]
  fold change (FC): 0.56
[13]
  Activity: Active
[14]
  Activity: Active
[15]
  Activity: Active
[16]
  Activity: Active
[17]
  Activity: Active
[18]
  Activity: Active
[19]
  fold change (FC): 6.01
[20]
  fold change (FC): 1.76
[21]
  Activity: Active
[22]
  Activity: Active
[23]
  Activity: Active
[24]
  Activity: Active
[25]
  Activity: Active
[26]
  fold change (FC): 2.23
[27]
  fold change (FC): 1.67
[28]
  Activity: Active
[29]
  fold change (FC): 5.34
[30]
  fold change (FC): 2.33
[31]
  Activity: >65%
[32]
  Activity: Active
[33]
  Activity: Active
[34]
  Activity: Active
[35]
  Activity: Active
[36]
  Activity: Active
[37]
  Drug uptake: Not Active
[38]
  fold change (FC): 3.84
[39]
  Drug uptake: Not Active
[40]
  Ratio: >3.5
[41]
  Activity: inactive
[42]
  Activity: Active
[43]
  Activity: Active
[44]
  Activity: Active
[45]
  Activity: Active
[46]
  Activity: Active
[47]
  Drug uptake: Active
[48]
  Ratio: >1.5
[49]
  fold change (FC): 2.72
[50]
  Activity: Active
[51]
  Activity: Active
